From patent publication US11737999B2, “Amino acid compositions and methods for the treatment of post-acute sequelae of COVID-19” (AXCELLA HEALTH INC., priority 2021, dated 2023)

Tests used:
[1] = tested on: Col1a1; assay: Col1a1 gene expression (RT-qPCR) in primary human hepatic stellate cells stimulated with TGFβ1; format: cell-based
[2] = tested on: TNF-α; assay: LPS-induced TNF-α secretion in primary human monocyte-derived macrophages; conditions: for TNF-α Measurements Mean (baseline subtracted): 0.15 ng/mL LPS
[3] = tested on: MCP1/CCL2; assay: MCP1/CCL2 secretion by ELISA in primary human hepatocytes with FFA + TNFα; format: cell-based
[4] = tested on: IL-6; assay: IL-6 cytokine secretion in primary human hepatic stellate cells stimulated with TNFα; format: cell-based; conditions: hepatic stellate cells, two donors
[5] = tested on: Procollagen Iα1; assay: Procollagen Iα1 secretion (ELISA) in primary human hepatic stellate cells stimulated with TGFβ1; format: cell-based; conditions: for Procollagen lα1 Secretion (Fold Change of 1X), Mean: first donor, TGFβ1 3 ng/mL 24 h
[6] = tested on: MCP-1; assay: MCP-1 chemokine secretion in primary human hepatic stellate cells stimulated with TNFα; format: cell-based; conditions: hepatic stellate cells, two donors
[7] = tested on: IL-6; assay: LPS-induced IL-6 secretion in primary human monocyte-derived macrophages; conditions: for IL-6 Measurements, Mean: 0.15 ng/mL LPS, baseline subtracted values
[8] = hepatic stellate cells, three donors

CC(=O)N[C@@H](CS)C(=O)O [N-Acetyl Cysteine, N-acetylcysteine]
Col1a1 Fold Expression Relative to Control, Mean ([1]; first donor, 1000 μM, single amino acid): 1.00 fold | Col1a1 Fold Expression Relative to Control, Mean ([1]; first donor, 10000 μM, single amino acid): 0.76 fold | Col1a1 Fold Expression Relative to Control, Mean ([1]; first donor, 5X, normalized to Gapdh, TGFβ1 3 ng/mL 24 h): 1.00 fold | Col1a1 Fold Expression Relative to Control, Mean ([1]; first donor, 10X, normalized to Gapdh, TGFβ1 3 ng/mL 24 h): 1.07 fold | Col1a1 Fold Expression Relative to Control, Mean ([1]; first donor, 20X, normalized to Gapdh, TGFβ1 3 ng/mL 24 h): 1.02 fold | Col1a1 Fold Expression Relative to Control, Mean ([1]; first donor, 40X, normalized to Gapdh, TGFβ1 3 ng/mL 24 h): 0.76 fold | Col1a1 gene expression (summary in words) [1, 8]: significantly reduced Col1a1 gene expression in all three donors | Col1a1 Fold Expression Relative to Control, Mean ([1]; second donor (Table 27), 1000 μM, single amino acid): 0.69 fold | Col1a1 Fold Expression Relative to Control, Mean ([1]; second donor (Table 27), 2500 μM, single amino acid): 0.69 fold | Col1a1 Fold Expression Relative to Control, Mean ([1]; second donor (Table 27), 5000 μM, single amino acid): 0.69 fold | Col1a1 Fold Expression Relative to Control, Mean ([1]; second donor (Table 27), 10000 μM, single amino acid): 0.57 fold | Col1a1 Fold Expression Relative to Control, Mean ([1]; second donor (Table 29), 1000 μM, single amino acid): 0.91 fold | Col1a1 Fold Expression Relative to Control, Mean ([1]; second donor (Table 29), 2500 μM, single amino acid): 0.82 fold | Col1a1 Fold Expression Relative to Control, Mean ([1]; second donor (Table 29), 5000 μM, single amino acid): 0.73 fold | Col1a1 Fold Expression Relative to Control, Mean ([1]; second donor (Table 29), 10000 μM, single amino acid): 0.62 fold | Col1a1 Fold Expression Relative to Control, Mean ([1]; second donor, 5X, normalized to Gapdh, TGFβ1 3 ng/mL 24 h): 0.69 fold | Col1a1 Fold Expression Relative to Control, Mean ([1]; second donor, 10X, normalized to Gapdh, TGFβ1 3 ng/mL 24 h): 0.69 fold | Col1a1 Fold Expression Relative to Control, Mean ([1]; second donor, 20X, normalized to Gapdh, TGFβ1 3 ng/mL 24 h): 0.69 fold | Col1a1 Fold Expression Relative to Control, Mean ([1]; second donor, 40X, normalized to Gapdh, TGFβ1 3 ng/mL 24 h): 0.57 fold | Col1a1 Fold Expression Relative to Control, Mean ([1]; third donor, 5X, normalized to Gapdh, TGFβ1 3 ng/mL 24 h): 0.91 fold | Col1a1 Fold Expression Relative to Control, Mean ([1]; third donor, 10X, normalized to Gapdh, TGFβ1 3 ng/mL 24 h): 0.82 fold | Col1a1 Fold Expression Relative to Control, Mean ([1]; third donor, 20X, normalized to Gapdh, TGFβ1 3 ng/mL 24 h): 0.73 fold | Col1a1 Fold Expression Relative to Control, Mean ([1]; third donor, 40X, normalized to Gapdh, TGFβ1 3 ng/mL 24 h): 0.62 fold | LPS-induced TNF-α secretion (summary in words) ([2]; Donor 1): significantly reduced LPS-induced TNF-α secretion | TNF-α Measurements Mean (baseline subtracted) ([2]; Donor 1, Conc. 0 X (baseline)): 0 | TNF-α Measurements Mean (baseline subtracted) ([2]; Donor 1, Conc. 5 X): −326.24 | TNF-α Measurements Mean (baseline subtracted) ([2]; Donor 1, Conc. 10 X): −446.88 | TNF-α Measurements Mean (baseline subtracted) ([2]; Donor 1, Conc. 20 X): −561.33 | TNF-α Measurements Mean (baseline subtracted) ([2]; Donor 1, Conc. 40 X): −644.49 | LPS-induced TNF-α secretion (summary in words) ([2]; Donor 2): significantly reduced LPS-induced TNF-α secretion | TNF-α Measurements Mean (baseline subtracted) ([2]; Donor 2, Conc. 0 X (baseline)): 9.47E−15 | TNF-α Measurements Mean (baseline subtracted) ([2]; Donor 2, Conc. 5 X): −54.1596 | TNF-α Measurements Mean (baseline subtracted) ([2]; Donor 2, Conc. 10 X): −70.8382 | TNF-α Measurements Mean (baseline subtracted) ([2]; Donor 2, Conc. 20 X): −88.6528 | TNF-α Measurements Mean (baseline subtracted) ([2]; Donor 2, Conc. 40 X): −103.984 | LPS-induced TNF-α secretion (summary in words) ([2]; Donor 3): significantly reduced LPS-induced TNF-α secretion | TNF-α Measurements Mean (baseline subtracted) ([2]; Donor 3, Conc. 0 X (baseline)): 4.74E−15 | TNF-α Measurements Mean (baseline subtracted) ([2]; Donor 3, Conc. 5 X): −33.6246 | TNF-α Measurements Mean (baseline subtracted) ([2]; Donor 3, Conc. 10 X): −41.7266 | TNF-α Measurements Mean (baseline subtracted) ([2]; Donor 3, Conc. 20 X): −48.4373 | TNF-α Measurements Mean (baseline subtracted) ([2]; Donor 3, Conc. 40 X): −55.3093 | MCP1 expression relative to Control, Mean ([3]; Donor 1, Conc. 1000 μM): −0.7629 | MCP1 expression relative to Control, Mean ([3]; Donor 1, Conc. 2500 μM): −2.498 | MCP1 expression relative to Control, Mean ([3]; Donor 1, Conc. 5000 μM): −10.8919 | MCP1 expression relative to Control, Mean ([3]; Donor 1, Conc. 10000 μM): −17.6065 | MCP1 expression relative to Control, Mean ([3]; Donor 2, Conc. 1000 μM): 1.602 | MCP1 expression relative to Control, Mean ([3]; Donor 2, Conc. 2500 μM): −4.0591 | MCP1 expression relative to Control, Mean ([3]; Donor 2, Conc. 5000 μM): −10.5725 | MCP1 expression relative to Control, Mean ([3]; Donor 2, Conc. 10000 μM): −28.4419 | MCP1/CCL2 secretion (summary in words) ([3]; primary human hepatocytes, two healthy donors): significantly decrease MCP1/CCL2 secretion | IL-6 secretion (summary in words) [4]: reduced IL-6 secretion in both donors but was only statistically significant in one of two donors | Procollagen lα1 Secretion (Fold Change of 1X), Mean ([5]; 5X): 0.9175 fold | Procollagen lα1 Secretion (Fold Change of 1X), Mean ([5]; 10X): 0.7939 fold | Procollagen lα1 Secretion (Fold Change of 1X), Mean ([5]; 20X): 0.6593 fold | Procollagen lα1 Secretion (Fold Change of 1X), Mean ([5]; 40X): 0.5076 fold | procollagen Iα1 secretion (summary in words) [5, 8]: significantly decrease procollagen Iα1 secretion in two of the three donors | Procollagen Iα1 Secretion, Mean ([5]; second donor, Conc. 5 X): 0.8387 Fold Change of 1X | Procollagen Iα1 Secretion, Mean ([5]; second donor, Conc. 10 X): 0.8877 Fold Change of 1X | Procollagen Iα1 Secretion, Mean ([5]; second donor, Conc. 20 X): 0.7378 Fold Change of 1X | Procollagen Iα1 Secretion, Mean ([5]; second donor, Conc. 40 X): 0.8383 Fold Change of 1X | Procollagen Iα1 Secretion, Mean ([5]; third donor, Conc. 5 X): 1.0897 Fold Change of 1× | Procollagen Iα1 Secretion, Mean ([5]; third donor, Conc. 10 X): 0.9391 Fold Change of 1× | Procollagen Iα1 Secretion, Mean ([5]; third donor, Conc. 20 X): 0.8521 Fold Change of 1× | Procollagen Iα1 Secretion, Mean ([5]; third donor, Conc. 40 X): 0.6962 Fold Change of 1× | MCP-1 secretion (summary in words) [6]: significantly reduced MCP-1 secretion in both donors | LPS-induced IL-6 secretion (summary in words) ([7]; Donor 1): significantly reduced LPS-induced IL-6 secretion | LPS-induced IL-6 secretion (summary in words) ([7]; Donor 2): significantly reduced LPS-induced IL-6 secretion | IL-6 Measurements, Mean ([7]; Donor 2, Conc. 5 X): −0.7946 | IL-6 Measurements, Mean ([7]; Donor 2, Conc. 10 X): −9.751 | IL-6 Measurements, Mean ([7]; Donor 2, Conc. 40 X): −33.7585 | LPS-induced IL-6 secretion (summary in words) ([7]; Donor 3): significantly reduced LPS-induced IL-6 secretion
